Experimental data: the NIST ThermoML archive (doi:10.1016/j.jct.2012.02.011)

Test: relative permittivity at various frequencies (dimensionless); xn = mol fraction of the nth substance listed
Conditions: 101.33 kPa, Liquid, Frequency=3 MHz, OH-301

CCCCOCCO [2-butoxyethan-1-ol] + O=[N+]([O-])c1ccccc1
relative permittivity
Conditions | 293.15 K | 298.15 K | 303.15 K | 308.15 K | 313.15 K
x2 = 0 | 9.78 | 9.35 | 8.88 | 8.39 | 7.91
x2 = 0.05 | 12.73 | 11.87 | 11.04 | 10.26 | 9.54
x2 = 0.0999 | 15.28 | 14.32 | 13.35 | 12.37 | 11.45
x2 = 0.2003 | 19.6 | 18.58 | 17.59 | 16.63 | 15.76
x2 = 0.3 | 23.44 | 22.39 | 21.39 | 20.42 | 19.59
x2 = 0.4 | 27 | 25.85 | 24.78 | 23.77 | 22.92
x2 = 0.5 | 30.19 | 28.96 | 27.82 | 26.74 | 25.84
x2 = 0.6 | 32.88 | 31.6 | 30.44 | 29.34 | 28.49
x2 = 0.7 | 34.91 | 33.59 | 32.5 | 31.36 | 30.53
x2 = 0.7493 | 35.71 | 34.34 | 33.12 | 32.06 | 31.22
x2 = 0.8 | 36.29 | 34.85 | 33.69 | 32.47 | 31.69
x2 = 0.8506 | 36.65 | 35.21 | 33.91 | 32.79 | 31.92
x2 = 0.9 | 36.77 | 35.26 | 33.96 | 32.85 | 32.04
x2 = 0.9499 | 36.52 | 35.09 | 33.86 | 32.84 | 32.1

CCOCCO [2-ethoxyethan-1-ol] + O=[N+]([O-])c1ccccc1
relative permittivity
Conditions | 293.15 K | 298.15 K | 303.15 K | 308.15 K | 313.15 K
x2 = 0 | 14.25 | 14.03 | 13.76 | 13.44 | 13.07
x2 = 0.0499 | 16.23 | 15.75 | 15.23 | 14.71 | 14.17
x2 = 0.0997 | 18.22 | 17.59 | 16.95 | 16.29 | 15.64
x2 = 0.2 | 21.92 | 21.16 | 20.41 | 19.67 | 18.98
x2 = 0.3002 | 25.24 | 24.4 | 23.54 | 22.77 | 22
x2 = 0.4001 | 28.2 | 27.24 | 26.32 | 25.46 | 24.66
x2 = 0.5 | 30.85 | 29.8 | 28.81 | 27.95 | 27.13
x2 = 0.6003 | 33.21 | 32.07 | 31.07 | 30.15 | 29.38
x2 = 0.7 | 34.94 | 33.75 | 32.71 | 31.81 | 31.04
x2 = 0.7491 | 35.66 | 34.39 | 33.29 | 32.33 | 31.52
x2 = 0.7996 | 36.11 | 34.77 | 33.6 | 32.6 | 31.76
x2 = 0.8504 | 36.37 | 35 | 33.73 | 32.69 | 31.81
x2 = 0.9001 | 36.43 | 34.99 | 33.69 | 32.64 | 31.79
x2 = 0.9456 | 36.26 | 34.87 | 33.66 | 32.67 | 31.9

CCCOCCO [2-propoxyethanol] + O=[N+]([O-])c1ccccc1
relative permittivity
Conditions | 293.15 K | 298.15 K | 303.15 K | 308.15 K | 313.15 K
x2 = 0 | 11.76 | 11.5 | 11.19 | 10.91 | 10.62
x2 = 0.0497 | 14.29 | 13.73 | 13.13 | 12.57 | 12.02
x2 = 0.1008 | 16.55 | 15.87 | 15.15 | 14.52 | 13.88
x2 = 0.2 | 20.53 | 19.71 | 18.92 | 18.2 | 17.54
x2 = 0.3004 | 24.06 | 23.14 | 22.27 | 21.5 | 20.81
x2 = 0.4 | 27.18 | 26.2 | 25.26 | 24.45 | 23.7
x2 = 0.5 | 30.06 | 28.98 | 27.97 | 27.11 | 26.32
x2 = 0.6008 | 32.56 | 31.43 | 30.36 | 29.47 | 28.73
x2 = 0.6997 | 34.55 | 33.33 | 32.27 | 31.35 | 30.61
x2 = 0.7489 | 35.32 | 34.05 | 32.96 | 32.01 | 31.26
x2 = 0.8 | 35.94 | 34.57 | 33.43 | 32.48 | 31.69
x2 = 0.8499 | 36.33 | 34.95 | 33.75 | 32.73 | 31.91
x2 = 0.9004 | 36.49 | 35.1 | 33.86 | 32.83 | 32.03
x2 = 0.9488 | 36.3 | 34.95 | 33.8 | 32.85 | 32.14

O=[N+]([O-])c1ccccc1 [nitrobenzene] + COCCO
relative permittivity
Conditions | 293.15 K | 298.15 K | 303.15 K | 308.15 K | 313.15 K
x1 = 0.0505 | 19.13 | 18.51 | 17.93 | 17.37 | 16.82
x1 = 0.1011 | 20.66 | 19.96 | 19.31 | 18.66 | 18.05
x1 = 0.2003 | 23.41 | 22.63 | 21.89 | 21.19 | 20.56
x1 = 0.3003 | 25.97 | 25.12 | 24.31 | 23.59 | 22.96
x1 = 0.4002 | 28.41 | 27.45 | 26.59 | 25.84 | 25.16
x1 = 0.4998 | 30.69 | 29.62 | 28.69 | 27.94 | 27.22
x1 = 0.5997 | 32.75 | 31.57 | 30.58 | 29.81 | 29.09
x1 = 0.7001 | 34.4 | 33.23 | 32.18 | 31.31 | 30.59
x1 = 0.752 | 35.1 | 33.87 | 32.8 | 31.91 | 31.17
x1 = 0.8004 | 35.62 | 34.35 | 33.24 | 32.3 | 31.54
x1 = 0.8491 | 36.03 | 34.74 | 33.57 | 32.61 | 31.8
x1 = 0.8974 | 36.21 | 34.89 | 33.72 | 32.76 | 32
x1 = 0.9502 | 36.26 | 34.94 | 33.8 | 32.88 | 32.2
x1 = 1 | 35.91 | 34.78 | 33.84 | 33.13 | 32.66
